Reference: PubChem BioAssay AID330 (DTP/NCI, 2004)
Several values for one entry are separate records, joined by “and”; a condition that tells them apart may be missing. Equal entries are not always repeated. Inconclusive results and toxic doses are left out. How the source made its calls: active means survival T/C of 150% or more; inactive means T/C below 125% in these data.

System: P388 leukemia ip, CD2F1 mice, survival T/C
Assay: NCI In Vivo Anticancer Drug Screen. Data for tumor model P388 Leukemia (intraperitoneal) in CD2F1 (CDF1) mice
Conditions: endpoint: median survival time, higher = longer survival
In short: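 Mice carrying the transplanted tumor received test compound or vehicle. Survival was recorded in each group, and the value is the treated-group measurement divided by that of the vehicle-treated control group.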

[1] = dose: 100.0 mg/kg/injection, schedule: Q01DX001 (ip), vehicle: saline with Tween-80
[2] = dose: 200.0 mg/kg/injection, schedule: Q01DX001 (ip), vehicle: saline with Tween-80
[3] = dose: 400.0 mg/kg/injection, schedule: Q01DX001 (ip), vehicle: saline with Tween-80
[4] = dose: 50.0 mg/kg/injection, schedule: Q01DX009 (ip), vehicle: Klucel (hydroxypropylcellulose) (HPC)
[5] = dose: 100.0 mg/kg/injection, schedule: Q01DX009 (ip), vehicle: Klucel (hydroxypropylcellulose) (HPC)
[6] = dose: 200.0 mg/kg/injection, schedule: Q01DX009 (ip), vehicle: Klucel (hydroxypropylcellulose) (HPC)
[7] = dose: 50.0 mg/kg/injection, schedule: Q01DX005 (ip), vehicle: saline with Tween-80
[8] = dose: 100.0 mg/kg/injection, schedule: Q01DX005 (ip), vehicle: saline with Tween-80
[9] = dose: 200.0 mg/kg/injection, schedule: Q01DX005 (ip), vehicle: saline with Tween-80
[10] = dose: 50.0 mg/kg/injection, schedule: Q01DX009 (ip), vehicle: saline with Tween-80
[11] = dose: 100.0 mg/kg/injection, schedule: Q01DX009 (ip), vehicle: saline with Tween-80
[12] = dose: 200.0 mg/kg/injection, schedule: Q01DX009 (ip), vehicle: saline with Tween-80
[13] = dose: 25.0 mg/kg/injection, schedule: Q01DX005 (ip), vehicle: Klucel (hydroxypropylcellulose) (HPC)
[14] = dose: 50.0 mg/kg/injection, schedule: Q01DX005 (ip), vehicle: Klucel (hydroxypropylcellulose) (HPC)
[15] = dose: 100.0 mg/kg/injection, schedule: Q01DX005 (ip), vehicle: Klucel (hydroxypropylcellulose) (HPC)
[16] = dose: 50.0 mg/kg/injection, schedule: Q01DX009 (ip), vehicle: saline
[17] = dose: 100.0 mg/kg/injection, schedule: Q01DX009 (ip), vehicle: saline
[18] = dose: 200.0 mg/kg/injection, schedule: Q01DX009 (ip), vehicle: saline

Measured: T/C

O=C1NNC(=O)C2(CCC(O)C2)c2ccncc21 (configuration not stated)
inactive: dose: 3.75 mg/kg/injection, schedule: Q01DX005 (ip), vehicle: saline 105 % of control | dose: 7.5 mg/kg/injection, schedule: Q01DX005 (ip), vehicle: saline 92 % of control | dose: 15.0 mg/kg/injection, schedule: Q01DX005 (ip), vehicle: saline 96 % of control | dose: 30.0 mg/kg/injection, schedule: Q01DX005 (ip), vehicle: saline 105 % of control

Nc1ccc(S(=O)(=O)NCCO)cc1[N+](=O)[O-]
inactive: [1] 95 % of control | [2] 100 % of control | [3] 100 % of control

N#CC1C(=O)NC(=O)C(C#N)C1c1c(Cl)cccc1Cl (configuration not stated)
inactive: [4] 101 % of control | [5] 99 % of control | [6] 99 % of control

COC(=O)Nc1csc(NC(=O)OC)n1
inactive: [7] 96 % of control | [8] 95 % of control | [9] 87 % of control

Nc1nnc(SCCCCCCSc2nnc(N)s2)s1
inactive: [7] 86 % of control | [8] 86 % of control

CCOC(=O)CCCC(=O)Cl
inactive: [10] 94 % of control | [11] 99 % of control | [12] 96 % of control

COC1CC(CC2CCC(C)C(C(C)C(=O)O)O2)OC2(OC(C)(C3CCC(C)(C4OC(C5OC(O)(CO)C(C)CC5C)CC4C)O3)CC2C)C1C (configuration not stated)
inactive: dose: 0.08 mg/kg/injection, schedule: Q01DX009 (ip), vehicle: Klucel (hydroxypropylcellulose) (HPC) 103 % of control | dose: 0.15 mg/kg/injection, schedule: Q01DX009 (ip), vehicle: Klucel (hydroxypropylcellulose) (HPC) 109 % of control | dose: 0.31 mg/kg/injection, schedule: Q01DX009 (ip), vehicle: Klucel (hydroxypropylcellulose) (HPC) 104 % of control and 105 % of control and 107 % of control | dose: 2.5 mg/kg/injection, schedule: Q01DX009 (ip), vehicle: Klucel (hydroxypropylcellulose) (HPC) 102 % of control and 123 % of control and 91 % of control | dose: 5.0 mg/kg/injection, schedule: Q01DX009 (ip), vehicle: Klucel (hydroxypropylcellulose) (HPC) 100 % of control

O=C(CCl)NNc1cccc(Cl)n1
inactive: dose: 50.0 mg/kg/injection, schedule: Q01DX001 (ip), vehicle: Klucel (hydroxypropylcellulose) (HPC) 98 % of control | dose: 100.0 mg/kg/injection, schedule: Q01DX001 (ip), vehicle: Klucel (hydroxypropylcellulose) (HPC) 98 % of control | dose: 200.0 mg/kg/injection, schedule: Q01DX001 (ip), vehicle: Klucel (hydroxypropylcellulose) (HPC) 93 % of control

CC(=O)C1=C(O)C(CC(C)C)NC1=O (configuration not stated)
inactive: [13] 102 % of control | [14] 102 % of control | [15] 101 % of control

Cc1ccc([N+](=O)[O-])cc1NC(=O)NNC(=O)CNC(=O)NCc1ccco1
inactive: dose: 60.0 mg/kg/injection, schedule: Q01DX005 (ip), vehicle: saline with Tween-80 93 % of control | dose: 120.0 mg/kg/injection, schedule: Q01DX005 (ip), vehicle: saline with Tween-80 89 % of control | dose: 240.0 mg/kg/injection, schedule: Q01DX005 (ip), vehicle: saline with Tween-80 89 % of control

CN(C)c1ccc(C=Nc2cccc(Cl)c2)cc1
inactive: [4] 108 % of control | [5] 98 % of control | [6] 103 % of control

N#CCC1CCCC1=O (configuration not stated)
inactive: [10] 103 % of control | [11] 99 % of control

CC[N+]1([O-])CCOCC1
inactive: [16] 97 % of control | [17] 101 % of control | [18] 113 % of control

NCc1ccc(O)c(O)c1O
inactive: [16] 121 % of control and 123 % of control | [17] 118 % of control and 120 % of control | [18] 124 % of control and 88 % of control

Cc1cc(-c2ccccc2)[s+]s1
inactive: dose: 12.5 mg/kg/injection, schedule: Q01DX009 (ip), vehicle: distilled water + Tween-80 101 % of control | dose: 25.0 mg/kg/injection, schedule: Q01DX009 (ip), vehicle: distilled water + Tween-80 115 % of control | dose: 50.0 mg/kg/injection, schedule: Q01DX009 (ip), vehicle: distilled water + Tween-80 117 % of control | dose: 100.0 mg/kg/injection, schedule: Q01DX009 (ip), vehicle: distilled water + Tween-80 111 % of control | dose: 200.0 mg/kg/injection, schedule: Q01DX009 (ip), vehicle: distilled water + Tween-80 117 % of control

N=C(N)c1ccc(O)cc1
inactive: dose: 50.0 mg/kg/injection, schedule: Q01DX005 (ip), vehicle: saline 102 % of control | dose: 100.0 mg/kg/injection, schedule: Q01DX005 (ip), vehicle: saline 111 % of control | dose: 200.0 mg/kg/injection, schedule: Q01DX005 (ip), vehicle: saline 112 % of control

Cc1cc(OCC(=O)N/N=C/c2ccc(N(CCCl)CCCl)cc2)c2c(=O)c3ccccc3oc2c1
inactive: dose: 60.0 mg/kg/injection, schedule: Q01DX005 (ip), vehicle: Klucel (hydroxypropylcellulose) (HPC) 94 % of control | dose: 120.0 mg/kg/injection, schedule: Q01DX005 (ip), vehicle: Klucel (hydroxypropylcellulose) (HPC) 117 % of control | dose: 240.0 mg/kg/injection, schedule: Q01DX005 (ip), vehicle: Klucel (hydroxypropylcellulose) (HPC) 88 % of control

c1ccc2c3c(ccc2c1)OP1(=NP(N2CC2)(N2CC2)=NP(N2CC2)(N2CC2)=N1)Oc1ccc2ccccc2c1-3
inactive: dose: 100.0 mg/kg/injection, schedule: Q04DX002 (ip), vehicle: Klucel (hydroxypropylcellulose) (HPC) 101 % of control and 117 % of control | dose: 200.0 mg/kg/injection, schedule: Q04DX002 (ip), vehicle: Klucel (hydroxypropylcellulose) (HPC) 100 % of control | dose: 400.0 mg/kg/injection, schedule: Q04DX002 (ip), vehicle: Klucel (hydroxypropylcellulose) (HPC) 108 % of control | dose: 800.0 mg/kg/injection, schedule: Q04DX002 (ip), vehicle: Klucel (hydroxypropylcellulose) (HPC) 102 % of control

Oc1ccc(C2Oc3ccccc3C=C2c2ccccc2)cc1 (configuration not stated)
inactive: [7] 94 % of control | [8] 89 % of control | [9] 96 % of control

O=[N+]([O-])c1cc([N+](=O)[O-])c2ccccc2c1NS(=O)(=O)c1ccc(Br)cc1
inactive: dose: 25.0 mg/kg/injection, schedule: Q01DX009 (ip), vehicle: saline with Tween-80 103 % of control | [10] 117 % of control

CC(=O)N(C)C
inactive: dose: 0.25 % in 0.5 ml injection vol, schedule: Q01DX009 (ip), vehicle: water 102 % of control | dose: 0.5 % in 0.5 ml injection vol, schedule: Q01DX009 (ip), vehicle: water 100 % of control and 102 % of control | dose: 1.0 % in 0.5 ml injection vol, schedule: Q01DX009 (ip), vehicle: water 99 % of control and 102 % of control | dose: 2.0 % in 0.5 ml injection vol, schedule: Q01DX009 (ip), vehicle: water 100 % of control and 101 % of control | dose: 8.0 % in 0.5 ml injection vol, schedule: Q01DX009 (ip), vehicle: water 112 % of control and 113 % of control | dose: 16.0 % in 0.5 ml injection vol, schedule: Q01DX009 (ip), vehicle: water 108 % of control

CCCCCCC(=O)/C=C/c1ccc(OC)cc1OC
inactive: [10] 94 % of control | [11] 91 % of control | [12] 91 % of control

CN1CCN(CCSSCCN2CCN(C)CC2)CC1
inactive: [16] 109 % of control | [17] 104 % of control | [18] 109 % of control

Nc1ncc2[nH]c(N)nc2n1
inactive: dose: 12.5 mg/kg/injection, schedule: Q01DX005 (ip), vehicle: Klucel (hydroxypropylcellulose) (HPC) 106 % of control | [13] 97 % of control | [14] 104 % of control and 107 % of control

CC1(C)C=C(C(=O)ON2C(=O)CCC2=O)C(C)(C)N1O
inactive: [4] 113 % of control | [5] 106 % of control

C=C(C)C(=O)Nc1ccc2nn(-c3ccccc3O)nc2c1
inactive: [16] 93 % of control | [17] 86 % of control | [18] 94 % of control

CC12CCC3(CO3)CC1CCC1C2CCC2(C)C1CCC21CO1 (configuration not stated)
inactive: [1] 102 % of control | [2] 99 % of control | [3] 88 % of control

C=CC(=O)NC(O)C(Cl)(Cl)Cl (configuration not stated)
inactive: [14] 98 % of control | [15] 98 % of control | dose: 200.0 mg/kg/injection, schedule: Q01DX005 (ip), vehicle: Klucel (hydroxypropylcellulose) (HPC) 102 % of control

COc1ccc(-c2csc(N)n2)cc1OC
inactive: dose: 100.0 mg/kg/injection, schedule: Q04DX003 (ip), vehicle: Klucel (hydroxypropylcellulose) (HPC) 98 % of control | dose: 200.0 mg/kg/injection, schedule: Q04DX003 (ip), vehicle: Klucel (hydroxypropylcellulose) (HPC) 101 % of control | dose: 400.0 mg/kg/injection, schedule: Q04DX003 (ip), vehicle: Klucel (hydroxypropylcellulose) (HPC) 102 % of control
